The text below walks through data of US11225477B2, “Inhibitors of influenza virus replication, application methods and uses thereof” (SUNSHINE LAKE PHARMA CO., LTD., priority 2015, dated 2022).

For one series, the system named is virus H1N1 A/Weiss/43. The series is described as follows: microbe, parasite or virus in culture. Type of series: cell-based. The following applies: Influenza A virus, 120 h; MDCK cells, H1N1 A/Weiss/43, Scheme 2: 8 concentrations 50 nM to 0.023 nM, 5 days, CCK-8.
The conditions of series [1]: SD, rat, in vivo, po, 5 mg/kg.
Protocol: (§1) The compounds disclosed herein were administered in form of a saline solution containing 5% DMSO, 5% Kolliphor HS 15 and 90% Saline. […] Plasma samples were collected and stored at −20° C. or −70° C. until LC/MS/MS analysis.
A short description of the next series: in vivo. Particulars: SD, rat.

Molecules are shown by their SMILES.

Protocol for in vivo: as §1

In general, EC50 refers to the midpoint of the concentration-response curve. In the series with virus H1N1 A/Weiss/43, `O=C(O)[C@H]1C2CCC(CC2)C1Nc1cc(-c2ccco2)nc(-c2c[nH]c3ncc(F)cc23)n1` (stereo in doubt) [Example 9a, (2S,3S)-3-((2-(5-fluoro-1H-pyrrolo[2,3-b]pyridin-3-yl)-6-(furan-2-yl)pyrimidin-4-yl)amino)bicyclo[2.2.2]octane-2-carboxylic Acid] came in with an EC50 of 0.039 nM.
In general, AUC(0-inf) refers to the area under the concentration-time curve extrapolated to infinity. A high value points to high exposure. By AUC(0-t) is commonly meant exposure summed from dosing to a finite time, without extrapolation to infinity. A higher AUC(0-t) goes with more exposure. By Cmax is commonly meant the highest concentration seen after dosing. A word on the Tmax: it is the time from dosing to the highest level. As usually defined, the Vd is a proportionality between amount in the body and measured concentration, not a real space. As usually defined, the clearance is the rate of elimination divided by the concentration. Low readings indicate inefficient removal, high ones efficient removal. What is called half-life is how long it takes for the measured level to halve. A high value points to slow decline. In the case of `O=C(O)[C@H]1C2CCC(CC2)[C@@H]1Nc1cc(-c2ccco2)nc(-c2c[nH]c3nc(F)ccc23)n1` [Example 73, (2S,3S)-3-((2-(6-fluoro-1H-pyrrolo[2,3-b]pyridin-3-yl)-6-(furan-2-yl)pyrimidin-4-yl)amino)bicyclo[2.2.2]octane-2-carboxylic Acid], the F in series [1] is on record as 42.6%. Moreover, in “in vivo” (iv, 1 mg/kg), the AUC(0-inf) is 24800 ng·h/mL, the exposure AUC(0-t) was 24200 ng·h/mL, the Cmax worked out at 14800 ng/mL and the Tmax was determined as 0.083 h. Further, in the series “in vivo” (iv, 1 mg/kg), the Vd is 0.212 L/kg, the clearance turned out to be 0.681 mL/min/kg and the half-life was 1.41 h. Further, in “in vivo” (po, 5 mg/kg), the AUC(0-inf) was 52800 ng·h/mL, the AUC(0-t) turned out to be 50600 ng·h/mL, the Cmax is 9300 ng/mL and the Tmax was determined as 1.5 h. In “in vivo” (po, 5 mg/kg), this compound showed a half-life of 5.58 h.
`O=C(O)C1C2CCC(CC2)C1Nc1nc(-c2c[nH]c3ncc(F)cc23)nc(-c2ccco2)c1F` (racemic) [Example 49, (+/−)-trans-3-((5-fluoro-2-(5-fluoro-1H-pyrrolo[2,3-b]pyridin-3-yl)-6-(furan-2-yl)pyrimidin-4-yl)amino)bicyclo[2.2.2]octane-2-carboxylic Acid]: in the series on virus H1N1 A/Weiss/43, a half-maximal response (EC50) required 0.068 nM.
Still for that read-out and setting: with `CC(C)n1ccc2c(N[C@H]3C4CCC(CC4)[C@@H]3C(=O)O)nc(-c3c[nH]c4ncc(F)cc34)nc21` [Example 78, (2S,3S)-3-((2-(5-fluoro-1H-pyrrolo[2,3-b]pyridin-3-yl)-7-isopropyl-7H-pyrrolo [2,3-d]pyrimidin-4-yl)amino)bicyclo[2.2.2]octane-2-carboxylic Acid] the figure was 0.236 nM.
Regarding `O=C(O)C1C2CCC(CC2)C1Nc1cc(-c2cccc3c2oc2ccccc23)nc(-c2c[nH]c3ncc(F)cc23)n1` (racemic) [Example 18, (+/−)-trans-3-((6-(dibenzo[b,d]furan-4-yl)-2-(5-fluoro-1H-pyrrolo[2,3-b]pyridin-3-yl)pyrimidin-4-yl)amino)bicyclo[2.2.2]octane-2-carboxylic Acid], in series [1], the F is listed as 43.1%. For the same compound, in the series “in vivo” (iv, 1 mg/kg), the AUC(0-inf) is 3190 ng·h/mL, the AUC(0-t) was 3130 ng·h/mL, the Cmax was found to be 4470 ng/mL and the Tmax is 0.083 h. In the series “in vivo” (iv, 1 mg/kg), this compound had a Vd of 0.598 L/kg, a clearance of 5.3 mL/min/kg and a half-life of 4.37 h. In “in vivo” (po, 5 mg/kg), the AUC(0-inf) stood at 6880 ng·h/mL, the AUC(0-t) stood at 6840 ng·h/mL, the Cmax was determined as 1690 ng/mL and the Tmax came out at 2 h. Besides, the half-life in “in vivo” (po, 5 mg/kg) is 3.71 h.
`CC(C)n1ccc2c(NC3C4CCC(CC4)C3C(=O)O)nc(-c3c[nH]c4ncc(F)cc34)nc21` (racemic) [Example 25, (+/−)-trans-3-((2-(5-fluoro-1H-pyrrolo[2,3-b]pyridin-3-yl)-7-isopropyl-7H-pyrrolo[2,3-d]pyrimidin-4-yl)amino)bicyclo[2.2.2]octane-2-carboxylic Acid]: the concentration giving a half-maximal response (EC50) in the series on virus H1N1 A/Weiss/43 is 0.26 nM.
For the compound `O=C(O)C1C2CCC(CC2)C1Nc1cc(C2CC2)nc(-c2c[nH]c3ncc(F)cc23)n1` (racemic) [Example 68, (+/−)-trans-3-((6-cyclopropyl-2-(5-fluoro-1H-pyrrolo[2,3-b]pyridin-3-yl)pyrimidin-4-yl)amino)bicyclo[2.2.2]octane-2-carboxylic Acid], in series [1], the F is on record as 60.1%. In the series “in vivo” (iv, 1 mg/kg), the AUC(0-inf) is 2880 ng·h/mL, the area under the curve AUC(0-t) amounted to 2760 ng·h/mL, the concentration peaked (Cmax) at 3750 ng/mL and the time of peak concentration (Tmax) stood at 0.083 h. Also, in the series “in vivo” (iv, 1 mg/kg), the Vd worked out at 0.551 L/kg, the clearance was determined as 5.86 mL/min/kg and the half-life was 2.01 h. Moreover, in “in vivo” (po, 5 mg/kg), the AUC(0-inf) came out at 8330 ng·h/mL, the exposure AUC(0-t) came out at 8310 ng·h/mL, the highest level (Cmax) was 2960 ng/mL and the Tmax came to 0.417 h. The compound further showed a half-life in the series “in vivo” (po, 5 mg/kg) of 3.24 h.
In turn, `O=C(O)[C@H]1C2CCC(CC2)C1Nc1cc(-c2ccc([N+](=O)[O-])o2)nc(-c2c[nH]c3ncc(F)cc23)n1` (stereo in doubt) [Example 24a, (2S,3S)-3-((2-(5-fluoro-1H-pyrrolo[2,3-b]pyridin-3-yl)-6-(5-nitrofuran-2-yl)pyrimidin-4-yl)amino)bicyclo[2.2.2]octane-2-carboxylic Acid] came in with a concentration for a half-maximal effect (EC50) in the series with virus H1N1 A/Weiss/43 of 0.744 nM.
On the same count and under the same terms, next, `O=C(O)C1C2CCC(CC2)C1Nc1cc(-c2cccs2)nc(-c2c[nH]c3ncc(F)cc23)n1` (racemic) [Example 23, (+/−)-trans-3-((2-(5-fluoro-1H-pyrrolo[2,3-b]pyridin-3-yl)-6-(thiophen-2-yl)pyrimidin-4-yl)amino)bicyclo[2.2.2]octane-2-carboxylic Acid]: 0.104 nM; `O=C(O)C1C2CCC(CC2)C1Nc1nc(-c2c[nH]c3ncc(F)cc23)nc(-c2cc3ccccc3o2)c1F` (racemic) [Example 54, (+/−)-trans-3-((6-(benzofuran-2-yl)-5-fluoro-2-(5-fluoro-1H-pyrrolo[2,3-b]pyridin-3-yl)pyrimidin-4-yl)amino)bicyclo[2.2.2]octane-2-carboxylic Acid]: 0.261 nM.
Regarding `O=C(O)C1C2CCC(CC2)C1Nc1nc(-c2c[nH]c3ncc(F)cc23)ncc1F` (racemic) [Control VX-787 (racemization), (+/−)-trans-3-((5-fluoro-2-(5-fluoro-1H-pyrrolo[2,3-b]pyridin-3-yl)pyrimidin-4-yl)amino)bicyclo[2.2.2]octane-2-carboxylic acid, reference compound], the F in series [1] was found to be 58.4%.
In turn, `O=C(O)C1C2CCC(CC2)C1Nc1nc(-c2c[nH]c3ncc(F)cc23)nc(-c2cc3ccccc3s2)c1F` (racemic) [Example 55, (+/−)-trans-3-((6-(benzo[b]thiophen-2-yl)-5-fluoro-2-(5-fluoro-1H-pyrrolo [2,3-b]pyridin-3-yl)pyrimidin-4-yl)amino)bicyclo[2.2.2]octane-2-carboxylic Acid] yielded an EC50 in the series with virus H1N1 A/Weiss/43 of 0.874 nM.
For `CC(C)(C)[C@@H](CC(=O)O)Nc1nc(-c2c[nH]c3ncc(F)cc23)nc(-c2ccco2)c1F` [Example 61, (R)-3-((5-fluoro-2-(5-fluoro-1H-pyrrolo[2,3-b]pyridin-3-yl)-6-(furan-2-yl)pyrimidin-4-yl)amino)-4,4-dimethylpentanoic Acid], the F in series [1] is 53.1%. Besides, in “in vivo” (iv, 1 mg/kg), the AUC(0-inf) was 4050 ng·h/mL, the exposure AUC(0-t) is 4030 ng·h/mL, the Cmax came out at 8540 ng/mL and the Tmax was determined as 0.083 h. In the series “in vivo” (iv, 1 mg/kg), this compound had a Vd of 0.585 L/kg, a clearance of 4.17 mL/min/kg and a half-life of 0.542 h. Besides, in the series “in vivo” (po, 5 mg/kg), the AUC(0-inf) worked out at 10700 ng·h/mL, the AUC(0-t) was determined as 10400 ng·h/mL, the Cmax is 2710 ng/mL and the Tmax was found to be 1.5 h. In “in vivo” (po, 5 mg/kg), this compound showed a half-life of 5.95 h.
In the case of `O=C(O)C1C2CCC(CC2)C1Nc1nc(-c2c[nH]c3ncc(F)cc23)nc(C#Cc2ccccc2)c1F` (racemic) [Example 63, (+/−)-trans-3-((5-fluoro-2-(5-fluoro-1H-pyrrolo[2,3-b]pyridin-3-yl)-6-phenylethynyl)pyrimidin-4-yl)amino)bicyclo[2.2.2]octane-2-carboxylic Acid], in series [1], the F worked out at 65%. Moreover, in the series “in vivo” (iv, 1 mg/kg), the AUC(0-inf) worked out at 4750 ng·h/mL, the AUC(0-t) worked out at 4710 ng·h/mL, the concentration peaked (Cmax) at 4990 ng/mL and the Tmax worked out at 0.083 h. In “in vivo” (iv, 1 mg/kg), the Vd was found to be 0.416 L/kg, the clearance turned out to be 3.55 mL/min/kg and the half-life was 3.85 h. Further, in “in vivo” (po, 5 mg/kg), the AUC(0-inf) amounted to 15400 ng·h/mL, the exposure AUC(0-t) was 15300 ng·h/mL, the highest level (Cmax) was 3280 ng/mL and the Tmax turned out to be 2 h. This compound also showed a half-life in “in vivo” (po, 5 mg/kg) of 3.59 h.
As for `O=C(O)C1C2CCC(CC2)C1Nc1cc(-c2cc3ccccc3o2)nc(-c2c[nH]c3ncc(F)cc23)n1` (racemic) [Example 16, (+/−)-trans-3-((6-(benzofuran-2-yl)-2-(5-fluoro-1H-pyrrolo[2,3-b]pyridin-3-yl)pyrimidin-4-yl)amino)bicyclo[2.2.2]octane-2-carboxylic Acid], the EC50 in the series with virus H1N1 A/Weiss/43 was found to be 0.54 nM.
Turning to `O=C(O)[C@H]1C2CCC(CC2)C1Nc1cc(-c2ccccc2)nc(-c2c[nH]c3ncc(F)cc23)n1` (stereo in doubt) [Example 4a, (2S,3S)-3-((2-(5-fluoro-1H-pyrrolo[2,3-b]pyridin-3-yl)-6-phenylpyrimidin-4-yl)amino)bicyclo[2.2.2]octane-2-carboxylic Acid], the EC50 in the series with virus H1N1 A/Weiss/43 stood at 0.17 nM.
`Cc1nc2[nH]cc(-c3nc(NC4C5CCC(CC5)C4C(=O)O)cc(-c4ccccc4)n3)c2cc1F` (racemic) [Example 80, (+/−)-trans-3-((2-(5-fluoro-6-methyl-1H-pyrrolo[2,3-b]pyridin-3-yl)-6-phenylpyrimidin-4-yl)amino)bicyclo[2.2.2]octane-2-carboxylic Acid] registered a F in series [1] of 62.5%. Also, in the series “in vivo” (iv, 1 mg/kg), the AUC(0-inf) came to 3380 ng·h/mL, the AUC(0-t) was 3320 ng·h/mL, the highest concentration (Cmax) came out at 5630 ng/mL and the Tmax worked out at 0.083 h. Moreover, in the series “in vivo” (iv, 1 mg/kg), the Vd was 1.5 L/kg, the clearance is 4.94 mL/min/kg and the half-life was 1.53 h. For the same compound, in the series “in vivo” (po, 5 mg/kg), the AUC(0-inf) amounted to 10600 ng·h/mL, the AUC(0-t) is 10100 ng·h/mL, the Cmax came to 3130 ng/mL and the Tmax worked out at 0.833 h. Moreover, the half-life in the series “in vivo” (po, 5 mg/kg) was 1.48 h.
